Results as given in patent US6743795B1, “3-nitropyridine derivaives and the pharmaceutical compositions containing said derivatives” (Dong Wha Pharm. Ind. Co. Ltd., priority 1999, dated 2004).
Read-outs that look alike come from different tables or passages of the source.

What was measured:
[1] = Cytotoxicity test on HepG2 cells (MTT); format: cell-based; conditions: human; HepG2 cells, MTT; read-out: Cytotoxicity on HepG2, IC50 (50% Inhibitory Concentration)
Excerpt: (§1) <Experiment 4> Cytotoxicity Test

[2] = test system: HepG2 cells; assay: Cytotoxicity test on HepG2 cells (MTT); format: cell-based
Excerpt: as §1

[3] = test system: HBV; assay: Proliferation of HBV in HBV producing cell line HepG 2.2.15 (competitive PCR of culture supernatant); format: cell-based, Hepatitis B virus; conditions: HepG 2.2.15, one week; for inhibition at 0.1 µg/mL / inhibition at 1 µg/mL / inhibition at 0.01 µg/mL: Hepatitis B virus, HepG2.2.15, 168 h, read-out: Inhibitory effect on the HBV proliferation: Inhibition activity on HBV-RT (%)
Procedure: <Experiment 2> Inhibitory Effect on the Proliferation of HBV in HBV Producing Cell Line
The following experiment was performed to determine inhibitory effects of compounds of formula 1 on the proliferation of HBV producing cell line.
To test for antiviral effect, replication and proliferation of HBV were measured in HepG 2.2.15, a human liver cancer cell line.
The cell concentration was adjusted to 1×10^5 cells/ml and 1 ml was added to each well of a 24-well cell culture plate, which was then kept in a culture box for 3-4 days at 37° C. under 5% CO2 until cells grew sufficiently, changing culture medium everyday. When the cells matured sufficiently, the test compounds were added to the final concentrations of 0.01, 0.1, and 1 μg/ml. One week after the addition of test compounds, the culture solution was centrifuged at 5,000 rpm for 10 min. 25 μl of supernatant was transferred to a new tube and 5 μl of lysis solution [0.54N NaOH, 0.06% NP40] was added to each tube. After keeping the tube at 37° C. for 1 hr, 30 μl of neutralizing solution [0.09N HCl 0.1MTris-HCl, pH7.4] was added as a reaction solution for competitive polymerase chain reaction (PCR).
PCR was performed using genetic sequence of HBV core protein as a matrix. PCR reaction was carried out by adding 1 unit of Taq polymerase enzyme to 25 pmol of each primer, 250 μM dNTP, 5 μl of PCR reaction solution [0.54N NaOH, 0. 06% NP40, 0.09N HCl, 0.1M Tris-HCl, pH 7.4].
DNA polymerized by PCR was electrophoresed on Agarose gel and quantitatively analyzed using an image analyzer (Gel Doc 1000, Bio-Rad) in order to evaluate the effect of compounds of the present invention on the reduction of HBV proliferation.
3TC (lamivudine) was used as a positive control at the same concentrations as those of the test compounds. The percentage of reduction in HBV proliferation was calculated using the group without test compound as a control and the results are represented in Table 4.

[4] = target: T1, HBV polymerase (Hepatitis B virus genotype A2 subtype adw2, UniProt P03159); assay: In vitro reverse transcription activity of HBV polymerase (ELISA-type, DIG/biotin nucleotides); format: biochemical; conditions: for inhibition at 0.01 µg/mL / inhibition at 0.1 µg/mL / inhibition at 1 µg/mL: read-out: Inhibition activity on HBV-RT (%)
T1 construct: made in house; host or cells: E. coli
T1 sequence (P03159 whole entry): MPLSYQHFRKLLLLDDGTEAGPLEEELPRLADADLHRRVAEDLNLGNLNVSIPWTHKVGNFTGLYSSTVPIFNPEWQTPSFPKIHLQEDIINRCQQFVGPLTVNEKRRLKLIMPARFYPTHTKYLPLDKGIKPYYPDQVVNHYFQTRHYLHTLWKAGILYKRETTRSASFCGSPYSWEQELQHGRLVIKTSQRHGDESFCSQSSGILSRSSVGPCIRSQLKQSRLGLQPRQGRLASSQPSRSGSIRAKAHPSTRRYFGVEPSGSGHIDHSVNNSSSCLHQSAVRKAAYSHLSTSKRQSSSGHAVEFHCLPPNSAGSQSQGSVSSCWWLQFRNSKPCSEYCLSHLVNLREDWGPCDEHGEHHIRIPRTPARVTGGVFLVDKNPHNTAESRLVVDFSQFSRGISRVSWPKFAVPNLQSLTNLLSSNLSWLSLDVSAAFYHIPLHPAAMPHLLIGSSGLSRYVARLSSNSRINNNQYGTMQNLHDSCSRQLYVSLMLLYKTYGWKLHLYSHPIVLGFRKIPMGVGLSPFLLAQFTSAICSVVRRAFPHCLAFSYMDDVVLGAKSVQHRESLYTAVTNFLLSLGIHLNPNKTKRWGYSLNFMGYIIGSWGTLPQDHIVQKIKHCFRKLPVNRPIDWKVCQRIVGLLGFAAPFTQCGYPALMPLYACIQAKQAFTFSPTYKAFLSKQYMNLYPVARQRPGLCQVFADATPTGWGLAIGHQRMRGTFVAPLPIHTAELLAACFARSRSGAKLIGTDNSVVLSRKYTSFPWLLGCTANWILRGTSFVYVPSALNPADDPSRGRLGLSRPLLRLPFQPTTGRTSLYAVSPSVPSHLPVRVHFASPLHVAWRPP
Procedure: <Experiment 1> Inhibitory Effect on the In Vitro Activities of HBV Polymerase in Reverse Transcription
The following in vitro experiment was performed to determine the effect of the compounds of formula 1 on the activity of HBV polymerase during reverse transcription.
The present inventors submitted application for a patent concerning HBV polymerase genetically expressed in and separated from E.coli, the process of its preparation, and the method to measure the enzyme activities (KR 94-3918, KR 96-33998). In the present experiments HBV polymerase was used which had been expressed in E. coli as stated above.
The method used in the present invention to measure in vitro reverse transcribing activities of HBV polymerase is as follows. Basic principles are the same as for ELISA. Nucleotides with biotin or digoxigenin group attached are included as substrates and anti-DIG antibodies attached to peroxidase enzyme recognize the polymerized substrates.
To the wells coated with streptavidin, 20 μl of HBV polymerase, 20 μl of reaction mixture (10 μM each of DIG-UTP and Biotin-UTP, 46 mM Tris-HCl, 266 mM KCl, 27.5 mM MgCl2, 9.2 mM DTT substrate/primer nybrid), and 20 μl of test compound (added to 1, 0.1, and 0.01 μg/ml) were added and allowed to react at 22° C. for 15 hrs. During this reaction, HBV polymerase catalyzes DNA synthesis and digoxigenin and biotin attached to nucleotides form bonds with streptavidin coated on the bottom of wells. When the reaction was done, each well was washed with 250 μl of cleaning buffer (pH 7.0) for 30 seconds, which was repeated five times to remove remaining impurities. 200 μl of anti-DIG-POD antibody was added to each well and allowed to react for 1 hr at 37° C., and the wells were washed with cleaning buffer to remove impurities. 200 μl each of ABTS™, a substrate of peroxidase, was then added and allowed to react at room temperature for 30 min. Absorbance was measured at 405 nm using ELISA reader.
The percentage of reduction in HBV polymerase activities for reverse transcription was calculated using the group without test compound as a control and the results are shown in Table 3.

[5] = target: T2, HIV reverse transcriptase (Human immunodeficiency virus type 1 group M subtype B, UniProt P03366); assay: In vitro HIV reverse transcriptase activity (non-radioactive RT assay kit); format: biochemical
T2 construct: purchased Boehringer Mannheim
Procedure: <Experiment 3> Inhibitory Effect on the In Vitro HIV Enzyme Activities in Reverse Transcription
The following in vitro experiments were done to determine the effect of compounds of formula 1 on the reduction of HIV enzyme activities in reverse transcription.
Non-radioactive reverse transcriptase assay kit (Boehringer Mannheim) was used in the measurement of in vitro transcriptase activities. 20 μl (40 ng) of HIV transcriptase and 20 μl of reaction mixture containing matrix-primer hybrid poly(A)oligo(dT)15, DIG(digoxigenin)-dUTP, biotin-dUTP, and TTP were added to wells coated with streptavidin. Test compounds were also added at the final concentrations of 0.1 and 1 μg/ml and allowed to react at 37° C. for 1 hr. At this time, DNA is formed from RNA by the action of HIV reverse transcriptase, forming bonds with streptavidin coated on the bottom of wells because of digoxigenin and biotin moieties attached to nucleotides.
When the reaction was completed, each well was washed with 250 μl of cleaning buffer (pH7.0) for 30sec. five times to remove remaining impurities. 200 μl of anti-DIG-POD […] was added to each well, allowed to react at 37° C. for 1 hr and washed as above to remove impurities. 200 μl of ABTS™, a substrate for peroxidase, was added to each well and allowed to react at room temperature for 30 min. Absorbance at 405 nm was then read for each solution using ELISA reader and used for quantitative determination of inhibitory effect on the HIV transcriptase activities. The percentage of reduction in the activities of HIV reverse transcriptase was calculated using the group without test compound as control and the results are represented in Table 5.

COc1ccc([N+](=O)[O-])c(Nc2ccc3cn[nH]c3c2)n1 [Example 2, 2-(1H-6-indazolylamino)-6-methoxy-3-nitropyridine]
IC50 [1]: > 100 µg/mL
Cytotoxicity on HepG2, MCD (Minimal Cytotoxic Concentration) ([2]; HepG2 cells, MTT): 100 µg/mL
inhibition at 0.1 µg/mL ([3]; 0.1 μg/ml): 40%
inhibition at 1 µg/mL ([3]; 1 μg/ml): 72%
inhibition at 0.01 µg/mL ([4]; 0.01 μg/ml test compound): 12%
inhibition at 0.1 µg/mL ([4]; 0.1 μg/ml test compound): 50%
inhibition at 1 µg/mL ([4]; 1 μg/ml test compound): 76%

CC(C)Nc1ccc([N+](=O)[O-])c(Nc2ccc3cn[nH]c3c2)n1 [Example 6, 2-(1H-6-indazolylamino)-6-isopropyl amino-3-nitropyridine]
Inhibitory effect on the activities of HIV reverse transcriptase: Inhibition activity on HIV-RT (%) ([5]; 0.1 μg/ml test compound): 50%
Inhibitory effect on the activities of HIV reverse transcriptase: Inhibition activity on HIV-RT (%) ([5]; 1 μg/ml test compound): 69%
Cytotoxicity on HepG2, IC50 (50% Inhibitory Concentration) ([2]; HepG2 cells, MTT): >100 µg/mL
Cytotoxicity on HepG2, MCD (Minimal Cytotoxic Concentration) ([2]; HepG2 cells, MTT): 100 µg/mL
Inhibitory effect on the HBV proliferation: Inhibition activity on HBV-RT (%) ([3]; 0.01 μg/ml): 33%
Inhibitory effect on the HBV proliferation: Inhibition activity on HBV-RT (%) ([3]; 0.1 μg/ml): 72%
Inhibitory effect on the HBV proliferation: Inhibition activity on HBV-RT (%) ([3]; 1 μg/ml): 90%
Inhibition activity on HBV-RT (%) ([4]; 0.01 μg/ml test compound): 49%
Inhibition activity on HBV-RT (%) ([4]; 0.1 μg/ml test compound): 76%
Inhibition activity on HBV-RT (%) ([4]; 1 μg/ml test compound): 91%

6-ethyl-(2-hydroxyethyl)amino-2-(1H-5-indazolylamino)-3-nitropyridine [Example 11]
Inhibitory effect on the activities of HIV reverse transcriptase: Inhibition activity on HIV-RT (%) ([5]; 0.1 μg/ml test compound): 46%
Inhibitory effect on the activities of HIV reverse transcriptase: Inhibition activity on HIV-RT (%) ([5]; 1 μg/ml test compound): 67%
Cytotoxicity on HepG2, IC50 (50% Inhibitory Concentration) [2]: >100 µg/mL
Cytotoxicity on HepG2, MCD (Minimal Cytotoxic Concentration) [2]: 100 µg/mL
Inhibitory effect on the HBV proliferation: Inhibition activity on HBV-RT (%) ([3]; 0.01 μg/ml): 20%
Inhibitory effect on the HBV proliferation: Inhibition activity on HBV-RT (%) ([3]; 0.1 μg/ml): 45%
Inhibitory effect on the HBV proliferation: Inhibition activity on HBV-RT (%) ([3]; 1 μg/ml): 83%
Inhibition activity on HBV-RT (%) ([4]; 0.01 μg/ml test compound): 35%
Inhibition activity on HBV-RT (%) ([4]; 0.1 μg/ml test compound): 60%
Inhibition activity on HBV-RT (%) ([4]; 1 μg/ml test compound): 85%

O=[N+]([O-])c1ccc(NC(CO)CO)nc1Nc1ccc2[nH]ncc2c1 [Example 14, 6-[bis(hydroxymethyl)methylamino)-2-(1H-5-indazolylamino)-3-nitropyridine]
Inhibitory effect on the activities of HIV reverse transcriptase: Inhibition activity on HIV-RT (%) ([5]; 0.1 μg/ml test compound): 44%
Inhibitory effect on the activities of HIV reverse transcriptase: Inhibition activity on HIV-RT (%) ([5]; 1 μg/ml test compound): 59%
inhibition at 0.01 µg/mL ([3]; 0.01 μg/ml): 22%
inhibition at 0.1 µg/mL ([3]; 0.1 μg/ml): 41%
inhibition at 1 µg/mL ([3]; 1 μg/ml): 80%
inhibition at 0.01 µg/mL ([4]; 0.01 μg/ml test compound): 30%
inhibition at 0.1 µg/mL ([4]; 0.1 μg/ml test compound): 49%
inhibition at 1 µg/mL ([4]; 1 μg/ml test compound): 85%
melting point: > 270 °C

C[C@@H](CCO)Nc1ccc([N+](=O)[O-])c(Nc2ccc3[nH]ncc3c2)n1 [Example 12, 6-[(1S)-1-(hydroxyethyl)ethylamino]-2-(1H-5-indazolylamino)-3-nitropyridine]
Inhibitory effect on the activities of HIV reverse transcriptase: Inhibition activity on HIV-RT (%) ([5]; 0.1 μg/ml test compound): 40%
Inhibitory effect on the activities of HIV reverse transcriptase: Inhibition activity on HIV-RT (%) ([5]; 1 μg/ml test compound): 64%
inhibition at 0.01 µg/mL ([3]; 0.01 μg/ml): 29%
inhibition at 0.1 µg/mL ([3]; 0.1 μg/ml): 48%
inhibition at 1 µg/mL ([3]; 1 μg/ml): 85%
inhibition at 0.01 µg/mL ([4]; 0.01 μg/ml test compound): 38%
inhibition at 0.1 µg/mL ([4]; 0.1 μg/ml test compound): 56%
inhibition at 1 µg/mL ([4]; 1 μg/ml test compound): 90%
melting point: > 270 °C
